Literature values in US8299214B2 (priority 2006, dated 2012).
pKd: −log10 of the molar value.

Molecular target: hemagglutinin (Influenza A virus, UniProt P03437)
Conditions: read-out: binding constant between hemagglutinin and free sialyl lactose (K0); evaluation by NMR, reported; cited from earlier work

In the case of `CC(=O)N[C@H]1[C@H]([C@H](O)[C@H](O)CO)O[C@@](O[C@H]2[C@@H](O)[C@@H](CO)O[C@@H](O[C@H]3[C@H](O)[C@@H](O)C(O)O[C@@H]3CO)[C@@H]2O)(C(=O)O)C[C@@H]1O` (stereo partly drawn) [α (2, 3)-sialyllactose], the pKd is listed as 2.49.
